Reference: publication PMC12250084 (International Journal of Molecular Sciences, 2025)

Key:
[1] = target: S protein of HCoV-229E (Human coronavirus 229E, UniProt P15423); experiment: SPR, Reichert4, CM5 chip, protein immobilised; assay type: binding
[2] = target: S protein of HCoV-OC43 (Human coronavirus OC43, UniProt P36334); experiment: SPR, Reichert4, CM5 chip, protein immobilised; assay type: binding
S protein of HCoV-OC43, sequence (P36334 14-1353): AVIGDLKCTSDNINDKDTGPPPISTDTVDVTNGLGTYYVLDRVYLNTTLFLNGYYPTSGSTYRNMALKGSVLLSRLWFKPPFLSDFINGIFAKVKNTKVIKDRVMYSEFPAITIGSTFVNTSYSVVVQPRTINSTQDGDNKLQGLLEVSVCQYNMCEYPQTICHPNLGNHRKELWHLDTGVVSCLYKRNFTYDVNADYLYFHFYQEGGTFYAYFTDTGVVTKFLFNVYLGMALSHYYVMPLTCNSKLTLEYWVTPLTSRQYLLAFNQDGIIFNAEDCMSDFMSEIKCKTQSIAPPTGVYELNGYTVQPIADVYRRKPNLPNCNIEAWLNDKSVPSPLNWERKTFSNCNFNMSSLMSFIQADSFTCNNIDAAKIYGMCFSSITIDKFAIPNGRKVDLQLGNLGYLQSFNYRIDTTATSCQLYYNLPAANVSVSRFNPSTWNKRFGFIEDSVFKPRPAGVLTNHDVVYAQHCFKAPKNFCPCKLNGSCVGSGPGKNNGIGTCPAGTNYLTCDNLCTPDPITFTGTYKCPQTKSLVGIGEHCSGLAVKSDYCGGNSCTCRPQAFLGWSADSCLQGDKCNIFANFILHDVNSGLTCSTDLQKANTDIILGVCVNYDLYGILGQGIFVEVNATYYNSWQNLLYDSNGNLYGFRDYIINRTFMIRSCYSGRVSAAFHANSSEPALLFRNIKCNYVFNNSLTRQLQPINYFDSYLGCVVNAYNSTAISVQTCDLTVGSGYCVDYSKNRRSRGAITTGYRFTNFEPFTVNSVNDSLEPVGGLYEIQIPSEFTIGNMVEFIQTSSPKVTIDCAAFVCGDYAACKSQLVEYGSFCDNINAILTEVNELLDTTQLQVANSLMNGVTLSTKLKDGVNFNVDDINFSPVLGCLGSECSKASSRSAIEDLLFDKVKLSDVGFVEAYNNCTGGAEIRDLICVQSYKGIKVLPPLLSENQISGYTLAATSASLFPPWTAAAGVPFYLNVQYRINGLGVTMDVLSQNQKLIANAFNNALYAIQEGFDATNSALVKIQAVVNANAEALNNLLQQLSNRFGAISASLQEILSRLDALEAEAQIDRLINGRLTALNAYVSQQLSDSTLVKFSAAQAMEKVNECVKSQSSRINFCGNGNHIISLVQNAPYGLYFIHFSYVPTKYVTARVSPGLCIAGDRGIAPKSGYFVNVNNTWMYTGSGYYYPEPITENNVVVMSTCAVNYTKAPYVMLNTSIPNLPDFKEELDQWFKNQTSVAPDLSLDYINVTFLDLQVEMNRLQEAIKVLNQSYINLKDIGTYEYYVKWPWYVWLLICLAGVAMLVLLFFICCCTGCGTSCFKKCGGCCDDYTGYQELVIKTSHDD

S protein of HCoV-229E, sequence (P15423 16-1173): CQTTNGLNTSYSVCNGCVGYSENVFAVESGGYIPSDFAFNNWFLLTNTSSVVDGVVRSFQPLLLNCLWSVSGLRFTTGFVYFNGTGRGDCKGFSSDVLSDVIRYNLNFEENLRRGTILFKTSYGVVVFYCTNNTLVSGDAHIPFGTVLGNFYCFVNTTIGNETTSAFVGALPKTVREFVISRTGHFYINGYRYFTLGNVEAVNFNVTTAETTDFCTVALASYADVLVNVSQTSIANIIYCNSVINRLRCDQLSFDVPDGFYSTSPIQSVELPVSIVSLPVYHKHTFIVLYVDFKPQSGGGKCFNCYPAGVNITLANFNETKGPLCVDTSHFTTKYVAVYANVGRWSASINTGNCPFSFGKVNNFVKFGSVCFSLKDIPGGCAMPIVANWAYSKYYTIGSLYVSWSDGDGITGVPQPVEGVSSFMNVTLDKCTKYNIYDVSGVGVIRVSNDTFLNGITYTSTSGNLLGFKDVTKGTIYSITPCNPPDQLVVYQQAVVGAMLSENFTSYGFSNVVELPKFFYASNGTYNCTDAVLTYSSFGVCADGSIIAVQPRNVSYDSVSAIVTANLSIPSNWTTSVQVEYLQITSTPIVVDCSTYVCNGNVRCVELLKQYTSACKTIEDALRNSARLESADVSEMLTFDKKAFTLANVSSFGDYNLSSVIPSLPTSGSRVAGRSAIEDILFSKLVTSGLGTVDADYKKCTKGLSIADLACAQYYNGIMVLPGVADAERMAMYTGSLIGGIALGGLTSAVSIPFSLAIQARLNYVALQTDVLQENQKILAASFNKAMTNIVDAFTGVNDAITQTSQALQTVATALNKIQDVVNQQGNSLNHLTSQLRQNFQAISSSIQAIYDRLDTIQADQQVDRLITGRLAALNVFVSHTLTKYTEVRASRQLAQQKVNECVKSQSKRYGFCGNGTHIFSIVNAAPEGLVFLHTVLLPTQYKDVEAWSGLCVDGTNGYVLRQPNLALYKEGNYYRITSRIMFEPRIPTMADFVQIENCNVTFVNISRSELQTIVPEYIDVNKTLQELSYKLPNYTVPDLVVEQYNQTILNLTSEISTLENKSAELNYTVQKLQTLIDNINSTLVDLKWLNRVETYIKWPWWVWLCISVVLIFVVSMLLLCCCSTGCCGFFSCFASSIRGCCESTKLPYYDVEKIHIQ

Question: With `CC1(C)[C@@H](O[C@H]2O[C@H](C(=O)O)[C@@H](O)[C@H](O)[C@H]2O[C@@H]2O[C@H](C(=O)O)[C@@H](O)[C@H](O)[C@H]2O)CC[C@]2(C)[C@H]3C(=O)C=C4[C@@H]5C[C@@](C)(C(=O)O)CC[C@]5(C)CC[C@@]4(C)[C@]3(C)CC[C@@H]12` [Diammonium glycyrrhizinate] as the compound, how does the Kd [1] read?
Answer: The Kd was 37.9 µM.

Question: What about the Kd [2] of the same compound?
Answer: The Kd was 5.76 µM.
